In test [1] the target is Class C β-lactamase of Enterobacter cloacae P-99 (Enterobacter cloacae, UniProt P05364). The experiment in a line: IC50 for inhibition of Class C β-lactamase of Enterobacter cloacae P-99 (nitrocefin hydrolysis). Type of test: biochemical. The method, then: (§1) Representative compounds of formula I were evaluated as inhibitors of the Class C β-lactamase of Enterobacter cloacae P-99, a cephalosporinase, and TEM-1, a penicillinase, by relative IC50 analysis. The IC50 value represents the concentration of inhibitor required to effect a 50% loss of activity of free enzyme. The IC50 value of each compound was determined as follows. Following a 10 minute incubation of a dilute solution of enzyme (2.56 nM) and inhibitor (<0.64 mM), a […] of this incubation mixture was then further diluted into 1 mL nitrocefin solution, and the rate of hydrolysis was measured during a 1 minute period by monitoring the absorbance of nitrocefin as a function of time.

The target of test [2] is TEM-1, a penicillinase (Escherichia coli, UniProt P62593). The experiment in a line: IC50 for inhibition of TEM-1 β-lactamase (nitrocefin hydrolysis). Type of test: biochemical. Particulars: read-out: IC50 Values for Inhibition of β-lactamase Derived from TEM-1. The method, then:
as §1

Where [3] appears, read: Table 2, compounds of formula IV, procedure similar to Table 1, read-out: IC50 Values for Inhibition of β-lactamase Derived from P-99.
Where [4] appears, read: Table 2, compounds of formula IV, procedure similar to Table 1.
The mark [5] stands for this setting: Table 1, 10 minute incubation of enzyme (2.56 nM) and inhibitor, nitrocefin hydrolysis, relative to tazobactam standard, read-out: IC50 Values for Inhibition of β-lactamase Derived from P-99.
[6] abbreviates: Table 1, 10 minute incubation of enzyme (2.56 nM) and inhibitor, nitrocefin hydrolysis, relative to tazobactam standard.
Where [7] appears, read: read-out: IC50 Values for Inhibition of β-lactamase Derived from P-99.

The values that follow come from US6407091B1, “β-lactamase inhibiting compounds” (Research Corporation Technologies, Inc., priority 1999, dated 2002).

Structures can show the parent of a compound that is named as a salt. Where two headings read alike, the source gives them in different places.

Sequence of TEM-1, a penicillinase (P62593 24-286 limits assumed): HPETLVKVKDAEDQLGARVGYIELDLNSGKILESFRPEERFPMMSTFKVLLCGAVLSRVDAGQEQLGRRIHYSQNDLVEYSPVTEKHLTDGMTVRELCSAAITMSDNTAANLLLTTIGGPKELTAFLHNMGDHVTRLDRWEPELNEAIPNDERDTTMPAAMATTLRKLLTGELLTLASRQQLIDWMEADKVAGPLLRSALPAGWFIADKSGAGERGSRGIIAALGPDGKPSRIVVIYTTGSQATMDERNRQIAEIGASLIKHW
Sequence of Class C β-lactamase of Enterobacter cloacae P-99 (P05364 21-381): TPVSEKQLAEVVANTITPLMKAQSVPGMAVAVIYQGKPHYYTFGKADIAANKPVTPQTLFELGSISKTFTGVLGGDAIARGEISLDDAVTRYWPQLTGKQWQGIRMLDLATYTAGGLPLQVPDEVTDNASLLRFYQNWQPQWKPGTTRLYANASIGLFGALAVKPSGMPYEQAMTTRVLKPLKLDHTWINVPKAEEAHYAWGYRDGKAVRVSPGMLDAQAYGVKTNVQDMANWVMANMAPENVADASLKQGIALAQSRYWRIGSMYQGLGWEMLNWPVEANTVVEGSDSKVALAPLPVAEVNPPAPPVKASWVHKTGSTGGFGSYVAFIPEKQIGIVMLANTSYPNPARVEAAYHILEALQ

As usually defined, the IC50 is the concentration needed to halve the response being measured. Take `COC(=O)/C(Cl)=C/C1=C(C(=O)O)N2C(=O)/C(=C/c3ccccn3)C2S(=O)(=O)C1` (stereo not shown) [Compound 13f]: the IC50 came to 0.2 µM in test [1] (setting [3]) and 0.02 µM in test [2] (setting [4]).

Take `CC1=C(C(=O)O)N2C(=O)/C(=C/c3ccccn3)C2S(=O)(=O)C1` (stereo not shown) [II: R1=2-pyr, R3=CH3, reference compound]: the figures for the IC50 in test [1] and in test [2] were 6.1 µM and 377 µM, respectively.

Consider `O=C(O)C1=C(/C=C/c2cccc[n+]2[O-])CS(=O)(=O)C2/C(=C\c3ccccn3)C(=O)N12` (stereo not shown) [Compound 13c, Sodium 1,1-Dioxo-3-{2′E-[2″-(pyridin-N-oxide)ethenyl]}-7Z-[(2′″-pyridyl)methylidene]-3-cephem-4-carboxylate], for which the IC50 in test [1] (setting [3]) stood at 0.6 µM; in test [2] (setting [4]), 0.006 µM.

With `C=C1C(=O)N2C(C(=O)O)=C(COC(C)=O)C(=C)S(=O)(=O)C12` (stereo not shown) [III: R3=CH2OAc, reference compound], the IC50 in test [1] was 315 µM; in test [2] it was > 2000 µM.

For `COC(=O)/C=C/C1=C(C(=O)O)N2C(=O)/C(=C/c3ccccn3)C2S(=O)(=O)C1` (stereo not shown) [Compound 13b, Sodium 1,1-Dioxo-3-[2′E-(methoxycarbonylethenyl)]-7Z-[(2″-pyridyl)methylidene]-3-cephem-4-carboxylate], the IC50 in test [1] amounted to 0.2 µM; in test [2] (setting [4]), 0.02 µM.

Take `C=C1C(COC(C)=O)=C(C(=O)O)N2C(=O)/C(=C/C(=O)O)C2S1(=O)=O` (stereo not shown) [Compound 6h, Disodium Salt of 7-[(Z)-(Carboxy)methylene]-2-(exomethylidene)-cephalosporinate Sulfone]: the IC50 in test [1] (setting [5]) worked out at 2.49 µM; in test [2] (setting [6]), 498 µM.

`C=C1C(COC(C)=O)=C(C(=O)O)N2C(=O)C(=CC(=O)OC(C)(C)C)C2S1(=O)=O` (stereo not shown) [Compound 6b, Sodium Salt of 7-[(Z)-(tert-Butoxycarbonyl)methylene]-2-(exomethylidene)cephalosporinate Sulfone]: the IC50 in test [1] (setting [7]) is 1.55 µM.

As to `CC(C)(C)OC(=O)/C=C/C1=C(C(=O)O)N2C(=O)/C(=C/c3ccccn3)C2S(=O)(=O)C1` (stereo not shown) [Compound 13e, Sodium 1,1-Dioxo-3-[2′E-(t-butoxycarbonylethenyl)]-7Z-[(2″-pyridyl)methylidene]-3-cephem-4-carboxylate], the IC50 in test [1] (setting [3]) turned out to be 1.48 µM.

For “Sodium [2-1(Bisthiomethyl)exomethylene]-7-[(Z)-(2″-pyridinyl)methylene]-3′-desacetoxycephalosporinate [Compound 6g]”, the IC50 is 0.51 µM in test [1] (setting [5]) and 173 µM in test [2] (setting [6]).

In turn, `C=C1C(COC(C)=O)=C(C(=O)O)N2C(=O)C(=Cc3ccccn3)C2S1(=O)=O` (stereo not shown) [Compound 6a, Sodium Salt of 7-[(Z)-(2′-Pyridyl)methylene]-2-(exomethylidene)cephalosporanic Acid Sulfone] came in with an IC50 in test [1] of 0.165 µM.

For the compound `Cn1nnnc1SCC1=C(C(=O)O)N2C(=O)C(=CC(=O)OC(C)(C)C)C2S(=O)(=O)C1` (stereo not shown) [II: R1=CO2-t-Bu, R3=CH2S(C2N4H3), reference compound], the IC50 in test [1] was 112 µM; in test [2] it was 0.123 µM.

Turning to `CC(=O)OCC1=C(C(=O)O)N2C(=O)C(=Cc3ccccn3)C2S(=O)(=O)C1` (stereo not shown) [II: R1=2-pyr, R3=CH2OAc, reference compound], the IC50 in test [1] is 1.35 µM; in test [2], 14.4 µM.

As to `C=C1C(CSc2nnnn2C)=C(C(=O)O)N2C(=O)C(=CC(=O)OC(C)(C)C)C2S1(=O)=O` (stereo not shown) [Compound 6f, Sodium Salt of Benzhydryl 7-[(Z)-(tert-Butylcarboxy)methylene]-3′-desacetoxy-2-exomethylidene-3′-[1″-methyl-1″H-tetrazol-5″-yl)thio]cephalosporinate Sulfone], the IC50 in test [1] (setting [7]) stood at 2.38 µM.

As for `C=C1C(C)=C(C(=O)O)N2C(=O)C(=CC(=O)OC(C)(C)C)C2S1(=O)=O` (stereo not shown) [Compound 6d, Sodium Salt of 7-[(Z)-(tert-Butoxycarbonyl)methylene]-3′-desacetoxy-2(exomethylidene)cephalosporinate Sulfone], the IC50 in test [1] (setting [7]) stood at 48.6 µM.

As to `C=C1C(C)=C(C(=O)O)N2C(=O)/C(=C/C(=O)O)C2S1(=O)=O` (stereo not drawn) [Compound 6i, Disodium Salt 7-[(Z)(Carboxy)methylene]-3′-desacetoxy-2-(exo-methylidene)cephalosporinate Sulfone], the half-inhibitory concentration (IC50) in test [1] (setting [5]) was determined as 36.8 µM; in test [2] (setting [6]), 277 µM.

`N#CC1=C(C(=O)O)N2C(=O)/C(=C/c3ccccn3)C2S(=O)(=O)C1` (stereo not shown) [Compound 19, Sodium 1,1-Dioxo-3-cyano-7Z-[(2′-pyridyl)methylidene]-3-cephem-4-carboxylate]: the half-inhibitory concentration (IC50) was 0.029 µM in test [1] and 2.34 µM in test [2] (setting [4]).

Turning to `C=C1C(C)=C(C(=O)O)N2C(=O)C(=Cc3ccccn3)C2S1(=O)=O` (stereo not shown) [Compound 6c, Sodium Salt of 7-((Z)-(2″-Pyridinyl)methylene]-3′-desacetoxy-2-(exomethylidene)cephalosporinate Sulfone], the IC50 in test [1] (setting [7]) was 0.039 µM.

As to `CC1=C(C(=O)O)N2C(=O)C(=CC(=O)OC(C)(C)C)C2S(=O)(=O)C1` (stereo not shown) [II: R1=CO2-t-Bu, R3=CH3, reference compound], the IC50 turned out to be 199 µM in test [1] and 111 µM in test [2].

As to `O=C(O)/C=C/C1=C(C(=O)O)N2C(=O)/C(=C/c3ccccn3)C2S(=O)(=O)C1` (stereo not shown) [Compound 13g, Disodium 3-[2′E-Carboxyethenyl]-1,1-dioxo-7Z-[(2″-pyridyl)methylidene]-3-cephem-4-carboxylate], the IC50 in test [1] (setting [3]) is 0.31 µM; in test [2] (setting [4]), 2.52 µM.

For the compound `N#C/C=C/C1=C(C(=O)O)N2C(=O)/C(=C/c3ccccn3)C2S(=O)(=O)C1` (stereo not shown) [Compound 13a, Sodium 3-[2′E-(Cyanoethenyl)]-1,1-dioxo-7Z-[(2″-pyridyl)methylidene]-3-cephem-4-carboxylate], the IC50 in test [1] was found to be 0.01 µM; in test [2] (setting [4]) it was 2.7 µM.
